Data reported in EP0114002B1, “Benzothiopyrano(4,3,2,-cd)indazoles, their pharmaceutical compositions and methods for their production” (WARNER-LAMBERT COMPANY, priority 1983, dated 1984).

Tests used:
HCT-8 cells = test: in vitro proliferating human colon adenocarcinoma (HCA) cell screen; assay type: cell-based; conditions: Table 1, 60 to 65 hours with compound, 50% inhibition of growth, read-out: HCA—3 in vitro ID50
Protocol: One test protocol is the in vitro proliferating human colon adenocarcinoma (HCA) cell screen. In this test, HCT-8 cells (HCA cell line received from Yale University) are trypsinized using trypsin-EDTA. A single cell suspension is achieved by passing the cells through a 26 gauge needle with a 20 cc syringe. A cell suspension is prepared using RPMI 1640 + 10% FCS + 50) g/ml gentamicin sulfate with a cell concentration of approximately 30,000 cells/ml. The cell suspension is dispensed in Linbro 24-well plates; 1 ml/well. The plates are incubated for approximately 48 hours at 37°C in a 5% C02 atmosphere. At this time test compounds are added in the appropriate concentration. Five µl of the 200 µg/ml stock solution is added to each well in primary test. Ten µl of the appropirate dilution is added to each well for a titration test. The plates are re-incubated an additional 60 to 65 hours at 37°C in a 5% C02 atmosphere. The cells are lysed using a mix of cationic surfactant, glacial acetic acid, and sodium chloride. Two ml of the lysed cell suspension from each well is added to 8 ml of diluent. The number of nuclei is determined using a Coulter counter (ZBI model), and a percent growth for each drug concentration is calculated. From this, an ID50 molar concentration of a compound (that results in 50% inhibition of growth) is determined.

Escherichia coli 04863 = test: in vitro antibacterial/antifungal (ABF) agar-disk diffusion test; assay type: cell-based; conditions: read-out: ABF Zone Diameter (cont. in mg/ml) E. Coli; for zone of inhibition at 500 µg/mL: 0.5 mg/ml; for zone of inhibition at 3000 µg/mL: 3 mg/ml
Protocol: (§1) Still another test protocol is the in vitro antibacterial/antifungal (ABF) test. Compounds are tested for antimicrobial activity in an agar-disk diffusion assay, a standard microbiological technique for testing antibiotics'. After incubation of each culture with a test compound, a zone of inhibition is determined. The zone diameter (mm) of active compounds ranges from a minimum of 13.5 mm to as high as 60 mm, with a greater diameter reflecting higher activity. For convenience, values are reported for two gram-negative bacteria (Aerobacter aerogenes 0126 and Escherichia coli 04863), two gram-positive bacteria (Bacillus subtilis 04555 and Streptococcus faecalis 05045 utilizing AM-09 medium), and one mycelial fungus (Penicillium avellaneum M2988).

[1] = tested on: Penicillium avellaneum M2988; test: as above; assay type: cell-based; conditions: Hamigera avellanea, read-out: ABF Zone Diameter (cont. in mg/ml) P. Avell-aneum; for zone of inhibition at 3000 µg/mL: 3 mg/ml
Protocol: as §1

[2] = tested on: Streptococcus faecalis 05045; test: as above; assay type: cell-based; conditions: Enterococcus faecalis, AM-09 medium, read-out: ABF Zone Diameter (cont. in mg/ml) S. Fae-calis; for zone of inhibition at 500 µg/mL: 0.5 mg/ml; for zone of inhibition at 3000 µg/mL: 3 mg/ml; for zone of inhibition at 1000 µg/mL: 1 mg/ml
Protocol: as §1

[3] = tested on: Aerobacter aerogenes 0126; test: as above; assay type: cell-based; conditions: Klebsiella aerogenes, read-out: ABF Zone Diameter (cont. in mg/ml) A. Aero-genes; for zone of inhibition at 100 µg/mL: 0.1 mg/ml; for zone of inhibition at 3000 µg/mL: 3 mg/ml
Protocol: as §1

Bacillus subtilis 04555 = test: as above; assay type: cell-based; conditions: read-out: ABF Zone Diameter (cont. in mg/ml) B. Sub-tilis; for zone of inhibition at 500 µg/mL: 0.5 mg/ml; for zone of inhibition at 3000 µg/mL: 3 mg/ml
Protocol: as §1

[4] = tested on: lymphocytic leukemia P388; test: in vivo lymphocytic leukemia P388 test; parameters: species or system mice; conditions: Mus musculus, P388, ip, 120 h, read-out: P388 in vivo T/C × 100; for response vs control in vivo at 3.12 mg/kg: Dose 3.12 mg/kg intraperitoneally once daily for five days; for response vs control in vivo at 6.25 mg/kg: Dose 6.25 mg/kg intraperitoneally once daily for five days; for response vs control in vivo at 12.5 mg/kg: Dose 12.50 mg/kg intraperitoneally once daily for five days; for response vs control in vivo at 50 mg/kg: Dose 50.00 mg/kg intraperitoneally once daily for five days; for response vs control in vivo at 25 mg/kg: Dose 25.00 mg/kg intraperitoneally once daily for five days
Protocol: Another test protocol is the in vivo lymphocytic leukemia P388 test. The animals used are either male or female CD2F, mice. There are six or seven animals per test group. The tumor transplant is by intraperitoneal injection of dilute ascitic fluid containing cells of lymphocytic leukemia P388. The test compounds are administered intraperitoneally once daily for five consecutive days at various doses following tumor inoculation. The animals are weighed and survivors are recorded on a regular basis for 30 days. A compound is designated "toxic" if, at a given dose, all animals died prior to four days after the first injection of drug. A ratio of survival time for treated (T)/control (C) animals is calculated. A criterion for efficacy is a ratio T/C times 100 greater than or equal to 125. See Cancer Chemotherapy Reports, Part 3, 3; 1 (1972) for a comprehensive discussion of the protocol.

L1210 cells = test: L1210 murine leukemia cell growth inhibition in vitro; assay type: cell-based; conditions: Mus musculus, 72 h, Table 1, three days incubation, 50% inhibition of growth, read-out: L1210 in vitro ID50
Protocol: Another test protocol uses L1210 cells, a murine leukemia cell line, grown in RPMI 1640 supplemented with 5% fetal bovine serum and gentamicin ([…]). Drug dilutions are prepared in the appropriate solvent and 20 µl of each dilution are added to 24-well Linbro tissue culture plates, followed by the addition of 2.0 ml of cell suspension containing 3 x 10^4 cells per ml. Solvent and medium controls are included in each test. After incubation at 37°C forthree days in 5% C02, the contents of each well are removed and the cells counted in a ZBI Coulter counter. Percent growth are calculated relative to the controls and the levels of drug activity are expressed as ID50 in moles per liter.

Structure (SMILES)	IC50 (HCT-8 cells) [nM]	IC50 (L1210 cells) [nM]	zone of inhibition at 500 µg/mL (Escherichia coli 04863) [mm]	zone of inhibition at 3000 µg/mL [1] [mm]	zone of inhibition at 100 µg/mL [3] [mm]	zone of inhibition at 500 µg/mL (Bacillus subtilis 04555) [mm]	response vs control in vivo at 3.12 mg/kg [4] [%]	response vs control in vivo at 6.25 mg/kg [4] [%]	response vs control in vivo at 12.5 mg/kg [4] [%]	zone of inhibition at 3000 µg/mL [2] [mm]	zone of inhibition at 3000 µg/mL [3] [mm]	zone of inhibition at 3000 µg/mL (Bacillus subtilis 04555) [mm]	zone of inhibition at 1000 µg/mL [2] [mm]	also measured
CCN(CC)CCn1nc2c3c(c(NCCN4CCOC4=O)ccc31)Sc1ccccc1-2 [CH2CH2N(C2H5)2 /]	1800	950		0							0	13		zone of inhibition at 3000 µg/mL (Escherichia coli 04863): 0 mm; zone of inhibition at 500 µg/mL [2]: 14 mm; response vs control in vivo at 47.45 mg/kg ([4]; Dose 47.45 mg/kg intraperitoneally once daily for five days): 141%; response vs control in vivo at 50 mg/kg [4]: 140%; response vs control in vivo at 63.28 mg/kg ([4]; Dose 63.28 mg/kg intraperitoneally once daily for five days): 165%; response vs control in vivo at 84.38 mg/kg ([4]; Dose 84.38 mg/kg intraperitoneally once daily for five days): 193%; response vs control in vivo at 100 mg/kg ([4]; Dose 100.00 mg/kg intraperitoneally once daily for five days): 218%
CCN(CC)CCn1nc2c3c(c([N+](=O)[O-])ccc31)Sc1ccccc1-2 [CH2CH2N(CH2H5)2 / HO2, N,N-Diethyl-5-nitro-2H[1]benzothiopyrano[4,3,2-cd]-indazole-2-ethanamine]	200	56		15						14	0	14		zone of inhibition at 1000 µg/mL (Escherichia coli 04863; 1 mg/ml): 14 mm; response vs control in vivo at 25 mg/kg [4]: 138%; response vs control in vivo at 50 mg/kg [4]: 170%
NCCn1nc2c3c(c(N)ccc31)Sc1ccccc1-2 [CH2CH2NH2 / NH2, 5-amino-2H[1]benzothiopyrano[4,3,2]-cd]indazole-2-ethanamine]	320	110	19	0	17		125	131	160				15	zone of inhibition at 1000 µg/mL (Bacillus subtilis 04555; 1 mg/ml): 18 mm
Nc1ccc2c3c(nn2CCNCCO)-c2ccccc2Sc13 [CH2CH2NHCH2CH2OH / NH2]	580	170	17	15		18	135	143	159				20	zone of inhibition at 500 µg/mL ([3]; 0.5 mg/ml): 16 mm; response vs control in vivo at 25 mg/kg [4]: 194%

The remaining molecules from weak to strong by IC50 (HCT-8 cells), led by results:

IC50 (HCT-8 cells) [nM]	IC50 (L1210 cells) [nM]	Structure (SMILES)	zone of inhibition at 500 µg/mL (Escherichia coli 04863) [mm]	zone of inhibition at 3000 µg/mL [1] [mm]	zone of inhibition at 100 µg/mL [3] [mm]	zone of inhibition at 500 µg/mL (Bacillus subtilis 04555) [mm]	response vs control in vivo at 3.12 mg/kg [4] [%]	response vs control in vivo at 6.25 mg/kg [4] [%]	response vs control in vivo at 12.5 mg/kg [4] [%]	zone of inhibition at 3000 µg/mL [2] [mm]	zone of inhibition at 3000 µg/mL [3] [mm]	zone of inhibition at 3000 µg/mL (Bacillus subtilis 04555) [mm]	zone of inhibition at 1000 µg/mL [2] [mm]	also measured
600	240	CCN(CC)CCn1nc2c3c(c(NC(C)=O)ccc31)Sc1ccccc1-2 [CH2CH2N(C2H5)2 / NHCOCH3, N-[2-[2-(Diethylamino)ethyl]-2H-[1]benzothiopyrano[4,3,2-cd]indazol-5-yl]acetamide]		0		16			170	15	16			zone of inhibition at 3000 µg/mL (Escherichia coli 04863): 16 mm
280	80	CN(C)CCn1nc2c3c(c(N)ccc31)Sc1ccccc1-2 [CH2CH2N(CH2)2 / NH2]	16		14	15		126	160				20	zone of inhibition at 500 µg/mL ([1]; 0.5 mg/ml): 17 mm
200	82	CCN(CC)CCn1nc2c3c(c(NCCNCCO)ccc31)Sc1ccccc1-2 [CH2CH2N(C2H5)2 / NHCH2CH2NHCH2CH2OH, 2-[[2-[[2-[2-(Diethylamino)ethyl]-2H[1]benzothiopyrano[4,3,2-cd]indazol-5-yl]amino]ethyl]amino]ethanol]	26	0	15	18	209	219	280					zone of inhibition at 500 µg/mL [2]: 16 mm
97	79	CN(C)CCn1nc2c3c(c([N+](=O)[O-])ccc31)Sc1ccccc1-2 [CH2CH2N(CH3)2 / NO2, N,N dimethyl-5-nitro-2H[1]benzothiopyrano[4,3,2-cd]indazole-2-ethanamine]							158	15		15		zone of inhibition at 100 µg/mL (Escherichia coli 04863; 0.1 mg/ml): 14 mm; zone of inhibition at 100 µg/mL ([1]; 0.1 mg/ml): 15 mm; zone of inhibition at 1000 µg/mL ([3]; 1 mg/ml): 15 mm
